Patent US20250221964A1, “Substituted Isoxazoles as Selective Nav1.7 Inhibitors for Pain Treatment and Method of Pain Treatment” (Board of Regents, The University of Texas System, priority 2021, published 2025)
Read-outs that look alike come from different tables or passages of the source. Each block holds one compound with its values, some of them ahead of it.

Legend:
[1] = tested on: muscarinic receptors in the rat cerebral cortex; settings: cited from earlier work
[2] = tested on: mouse automated formalin model; assay: mouse automated formalin test; assay type: in vivo; settings: 135 mg/kg p.o.
Procedure: (§1) Compound 100 was administered using the mouse automated formalin model at a dosage of 135 mg/kg p.o. Dosage was selected based upon projection from mouse exposure at 5 mg/kg.

[3] = ADME assays (solubility, CYP inhibition, in vitro metabolism); settings: in words
[4] = mouse exposure / pharmacokinetics in formalin study (plasma, brain); assay type: in vivo; settings: for concentration at 0.25 hr: pre-tx time 0.25 hr, unbound
Procedure: as §1

hNav1.7 = hNav1.7 (Homo sapiens, UniProt Q15858); assay: Nav1.7 in vitro inhibition assay; assay type: cell-based; settings: for subtype selectivity (Nav1.7 vs. Nav1.5): in words
Chain of hNav1.7 (Q15858 whole entry): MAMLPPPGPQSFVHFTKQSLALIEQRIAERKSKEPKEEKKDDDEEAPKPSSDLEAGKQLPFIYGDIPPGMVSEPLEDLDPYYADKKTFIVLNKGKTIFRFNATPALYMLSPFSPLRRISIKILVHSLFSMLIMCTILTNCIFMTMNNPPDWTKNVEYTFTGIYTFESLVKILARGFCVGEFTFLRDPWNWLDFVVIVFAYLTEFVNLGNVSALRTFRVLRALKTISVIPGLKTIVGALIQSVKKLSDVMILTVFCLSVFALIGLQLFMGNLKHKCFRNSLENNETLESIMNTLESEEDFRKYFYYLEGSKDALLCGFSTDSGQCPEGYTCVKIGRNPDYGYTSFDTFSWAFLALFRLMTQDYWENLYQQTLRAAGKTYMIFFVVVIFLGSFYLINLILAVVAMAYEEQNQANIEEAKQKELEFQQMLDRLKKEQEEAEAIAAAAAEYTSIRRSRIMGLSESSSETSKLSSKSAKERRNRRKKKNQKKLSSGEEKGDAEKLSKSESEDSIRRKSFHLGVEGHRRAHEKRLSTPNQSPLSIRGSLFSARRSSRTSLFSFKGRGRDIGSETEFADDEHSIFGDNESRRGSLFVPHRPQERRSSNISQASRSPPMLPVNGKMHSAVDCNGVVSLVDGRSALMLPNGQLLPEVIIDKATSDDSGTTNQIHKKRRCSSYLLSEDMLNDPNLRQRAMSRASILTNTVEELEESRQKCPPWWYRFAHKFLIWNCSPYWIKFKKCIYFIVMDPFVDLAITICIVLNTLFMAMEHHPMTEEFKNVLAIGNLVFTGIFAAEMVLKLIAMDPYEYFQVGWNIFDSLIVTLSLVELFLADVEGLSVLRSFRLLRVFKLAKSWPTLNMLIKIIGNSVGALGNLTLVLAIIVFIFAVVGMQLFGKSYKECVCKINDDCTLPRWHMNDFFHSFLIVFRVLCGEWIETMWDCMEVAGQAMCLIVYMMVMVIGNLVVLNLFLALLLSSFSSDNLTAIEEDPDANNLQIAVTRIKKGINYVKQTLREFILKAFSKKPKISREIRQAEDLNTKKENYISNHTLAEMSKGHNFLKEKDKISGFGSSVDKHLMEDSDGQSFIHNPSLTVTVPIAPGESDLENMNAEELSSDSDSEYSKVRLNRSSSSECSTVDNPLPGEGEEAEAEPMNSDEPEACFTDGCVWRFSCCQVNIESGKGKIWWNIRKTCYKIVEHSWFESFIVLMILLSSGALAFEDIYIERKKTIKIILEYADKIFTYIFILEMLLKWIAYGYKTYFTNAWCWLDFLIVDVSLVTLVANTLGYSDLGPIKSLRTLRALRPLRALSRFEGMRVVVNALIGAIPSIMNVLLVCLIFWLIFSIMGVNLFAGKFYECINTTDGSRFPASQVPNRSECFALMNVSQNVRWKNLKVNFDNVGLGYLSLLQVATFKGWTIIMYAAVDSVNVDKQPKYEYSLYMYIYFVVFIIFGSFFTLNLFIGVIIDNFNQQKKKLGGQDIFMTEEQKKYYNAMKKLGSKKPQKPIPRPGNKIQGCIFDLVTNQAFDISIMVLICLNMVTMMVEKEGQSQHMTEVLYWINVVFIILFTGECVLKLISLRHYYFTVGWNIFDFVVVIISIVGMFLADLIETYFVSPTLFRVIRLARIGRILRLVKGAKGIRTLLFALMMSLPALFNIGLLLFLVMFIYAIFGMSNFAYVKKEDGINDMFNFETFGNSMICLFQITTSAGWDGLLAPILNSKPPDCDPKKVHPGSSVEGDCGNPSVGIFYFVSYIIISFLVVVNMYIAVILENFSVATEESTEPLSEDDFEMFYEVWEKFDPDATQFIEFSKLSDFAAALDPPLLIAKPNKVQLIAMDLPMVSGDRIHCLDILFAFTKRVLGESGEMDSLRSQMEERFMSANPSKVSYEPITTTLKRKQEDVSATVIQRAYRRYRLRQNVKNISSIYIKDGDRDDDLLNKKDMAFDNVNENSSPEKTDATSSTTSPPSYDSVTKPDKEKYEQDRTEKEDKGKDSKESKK

hNav1.5 = hNav1.5 (Homo sapiens, UniProt Q14524); assay: Nav1.5 in vitro inhibition assay; assay type: cell-based; settings: in vitro testing
Chain of hNav1.5 (Q14524 whole entry): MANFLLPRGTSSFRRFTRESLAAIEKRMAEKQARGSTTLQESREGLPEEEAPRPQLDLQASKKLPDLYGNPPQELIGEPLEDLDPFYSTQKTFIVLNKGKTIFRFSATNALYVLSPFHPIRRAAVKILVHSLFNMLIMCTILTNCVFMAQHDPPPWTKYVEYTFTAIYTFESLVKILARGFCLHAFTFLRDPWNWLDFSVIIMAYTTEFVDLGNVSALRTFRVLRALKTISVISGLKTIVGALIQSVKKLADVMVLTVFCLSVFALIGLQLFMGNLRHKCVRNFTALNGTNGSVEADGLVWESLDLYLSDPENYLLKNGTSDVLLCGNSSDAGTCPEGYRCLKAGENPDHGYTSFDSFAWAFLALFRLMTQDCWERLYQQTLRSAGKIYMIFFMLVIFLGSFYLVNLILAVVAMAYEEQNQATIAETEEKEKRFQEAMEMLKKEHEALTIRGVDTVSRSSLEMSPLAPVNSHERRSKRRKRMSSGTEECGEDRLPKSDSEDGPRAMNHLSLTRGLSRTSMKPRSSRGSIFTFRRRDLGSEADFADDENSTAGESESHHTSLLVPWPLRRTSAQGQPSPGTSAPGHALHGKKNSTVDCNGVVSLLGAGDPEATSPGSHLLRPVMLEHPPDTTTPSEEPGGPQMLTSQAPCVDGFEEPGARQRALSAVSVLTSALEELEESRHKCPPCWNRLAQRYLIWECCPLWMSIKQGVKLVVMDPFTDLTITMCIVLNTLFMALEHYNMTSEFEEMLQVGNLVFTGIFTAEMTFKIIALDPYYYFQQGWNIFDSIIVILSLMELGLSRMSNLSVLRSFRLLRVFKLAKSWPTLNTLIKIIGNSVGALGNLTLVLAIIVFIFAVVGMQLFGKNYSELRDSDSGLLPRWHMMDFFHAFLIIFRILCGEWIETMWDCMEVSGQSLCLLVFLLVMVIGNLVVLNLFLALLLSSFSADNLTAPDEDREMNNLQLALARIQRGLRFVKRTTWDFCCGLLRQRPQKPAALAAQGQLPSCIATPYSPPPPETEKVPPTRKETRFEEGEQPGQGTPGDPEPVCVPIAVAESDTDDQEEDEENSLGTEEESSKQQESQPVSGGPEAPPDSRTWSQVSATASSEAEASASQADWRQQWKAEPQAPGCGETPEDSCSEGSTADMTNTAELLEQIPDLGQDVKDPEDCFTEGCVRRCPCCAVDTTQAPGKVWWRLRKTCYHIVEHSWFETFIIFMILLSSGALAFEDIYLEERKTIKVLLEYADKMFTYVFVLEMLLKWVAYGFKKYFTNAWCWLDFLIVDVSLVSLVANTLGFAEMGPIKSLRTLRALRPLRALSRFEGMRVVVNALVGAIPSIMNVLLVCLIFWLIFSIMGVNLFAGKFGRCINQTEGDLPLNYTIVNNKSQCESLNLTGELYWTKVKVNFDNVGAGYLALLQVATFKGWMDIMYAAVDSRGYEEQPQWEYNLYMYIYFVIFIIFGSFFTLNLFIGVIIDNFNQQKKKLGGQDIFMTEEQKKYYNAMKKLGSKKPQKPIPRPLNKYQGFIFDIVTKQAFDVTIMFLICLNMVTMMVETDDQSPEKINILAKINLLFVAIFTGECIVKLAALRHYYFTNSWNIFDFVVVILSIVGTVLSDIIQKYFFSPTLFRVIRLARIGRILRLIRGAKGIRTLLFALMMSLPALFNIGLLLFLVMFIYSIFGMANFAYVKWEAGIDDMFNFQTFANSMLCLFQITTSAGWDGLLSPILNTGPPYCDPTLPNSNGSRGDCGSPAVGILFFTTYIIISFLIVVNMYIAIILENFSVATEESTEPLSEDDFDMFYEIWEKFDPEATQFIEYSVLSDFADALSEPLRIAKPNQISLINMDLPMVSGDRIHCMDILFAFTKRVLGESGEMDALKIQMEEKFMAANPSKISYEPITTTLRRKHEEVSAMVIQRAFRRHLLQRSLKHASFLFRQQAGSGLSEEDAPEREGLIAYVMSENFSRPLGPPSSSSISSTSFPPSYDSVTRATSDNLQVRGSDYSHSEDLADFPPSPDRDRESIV

[5] = 135 mg/kg p.o., 0.25 hr, versus FI IC50
[6] = 135 mg/kg p.o., 0.25 hr, versus SI IC50
[7] = in vitro testing, read-out: potency against Nav1.7

Compound: Cc1scc2c1N(C(=O)CN1CCN(C)CC1)c1ccccc1NC2=O [(−)-isomer, telenzepine]
fold less active than the (+)-isomer [1]: 500 ×

compound profiling in ADME assays [3]: promising
Brain TER (FI) [4, 5]: 0.2 (FI)
Plasma TER (FI) [4, 5]: 0.1 (FI)
Brain TER (SI) [4, 6]: 1.8 (SI)
Plasma TER (SI) [4, 6]: 1.2 (SI)
concentration at 0.25 hr ([4]; brain, po, mouse, 135 mg/kg p.o., read-out: Mean Brain, u): 414 nM
Tmax ([4]; in vivo, po, mouse): 15 min
half-life ([4]; in vivo, po, mouse): 66 min
concentration at 0.25 hr ([4]; plasma, po, mouse, 135 mg/kg p.o., read-out: Mean plasma, u): 282 nM
IC50 (hNav1.7; FI, read-out: h1.7 IC50 (FI)): 2020 nM
IC50 (hNav1.7; [7]): 570 nM
Compound: CC(C)(CO)CCCNC(=O)c1cc(-c2ccccc2)on1 [Compound 100]
reduction in late-phase pain-induced reactions [2]: 31.4%
Percent Reversal in Late Phase Formalin ([2]; pre-tx time 0.25 hr): 31.4 ± 5.1%
subtype selectivity (Nav1.7 vs. Nav1.5) (hNav1.7): poor selectivity
IC50 (hNav1.5; read-out: Nav1.5 potency): 1900 nM

IC50 (hNav1.7; [7]): 60 nM
Compound: CC(C)(CO)CCCNC(=O)c1noc(-c2ccccc2)c1-c1ccccc1 [Compound 106]
subtype selectivity (Nav1.7 vs. Nav1.5) (hNav1.7): remained poor
IC50 (hNav1.5; read-out: Nav1.5 IC50): 180 nM

Compound: CN(CCCC(C)(C)CO)C(=O)c1cc(-c2ccccc2)on1 [Compound 119]
subtype selectivity (Nav1.7 vs. Nav1.5) (hNav1.7): improved

Compound: Cc1ccc(F)cc1-c1c(C(=O)NCCCC(C)(C)CO)noc1-c1ccccc1 [Compound 130]
subtype selectivity (Nav1.7 vs. Nav1.5) (hNav1.7): improved
